# From patent publication US6528295B2, “Protein phosphatase methylesterase” (priority 1998, dated 2003)
# “Also recorded” adds a separate entry of the source. *1 amine or outer side, *2 acyl side, *3 side chain or, on linkers, in order; H or OH if unused. Where a SMILES comes first, the peptide text is derived from it. Bridges are numbered along the chain shown (N, C = ends). [ ]: non-standard residue; d: D form. Adda = CO[C@@H](Cc1ccccc1)[C@@H](C)/C=C(C)/C=C/[C@H](N[*:1])[C@H](C)C(=O)[*:2]; dAsp(3S-Me) = C[C@H](C(=O)[*:3])[C@@H](N[*:1])C(=O)[*:2]; d(γGlu) = O=C(O)[C@@H](CCC(=O)[*:2])N[*:1]; NMeDha = C=C(NC)C(=O)O
# Columns and labels:
# PP2A methyltransferase = settings: cited from earlier work
# PP2A = PP2A (Homo sapiens, UniProt P67775); assay type: biochemical
# H59Q/PME-1 complex = target: T1, H59Q/PME-1 complex (Homo sapiens, UniProt P67775, H59Q); assay type: binding, mouse
# T1 construct: expressed in transfected cells; host or cells: NIH3T3 (A3); MT-transformed NIH3T3 (A8); PME-1 is endogenous
# human PME-1 [1] = target: human PME-1 (Homo sapiens, UniProt Q9Y570); assay type: biochemical
# [2] = tested on: phosphorylase a and cdc2-phosphorylated histone H1; experiment: Phosphatase activity in anti-HA tag immunoprecipitates of wt and mutant C subunits; assay type: biochemical; settings: normalized to wt, four independent experiments
# PME-1 = target: T2, PME-1 (Mus musculus, UniProt Q8BVQ5); experiment: Immunoprecipitation assay of PME-1 binding to H59Q/301Stop versus H59Q; settings: all seven experiments
# T2 construct: endogenous in cells; host or cells: MT-transformed NIH3T3 cells (C subunit mutants stably transfected)
# T2 sequence (Q8BVQ5 1-386): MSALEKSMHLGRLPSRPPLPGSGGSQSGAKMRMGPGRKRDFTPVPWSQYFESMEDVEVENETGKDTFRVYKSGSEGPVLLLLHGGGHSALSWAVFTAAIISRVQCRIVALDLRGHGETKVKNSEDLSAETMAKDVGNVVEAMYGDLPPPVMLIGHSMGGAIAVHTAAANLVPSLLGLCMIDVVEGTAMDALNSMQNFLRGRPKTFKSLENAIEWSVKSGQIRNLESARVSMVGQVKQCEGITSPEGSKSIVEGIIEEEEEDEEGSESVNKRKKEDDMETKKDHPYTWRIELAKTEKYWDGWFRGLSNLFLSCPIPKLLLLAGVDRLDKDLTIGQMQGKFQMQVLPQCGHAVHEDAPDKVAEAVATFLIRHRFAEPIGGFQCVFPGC
# [3] = tested on: 46 kDa PP2A methylesterase; settings: cited from earlier work
# human PME-1 [4] = assay type: biochemical
# PP2A, sequence (P67775 whole entry): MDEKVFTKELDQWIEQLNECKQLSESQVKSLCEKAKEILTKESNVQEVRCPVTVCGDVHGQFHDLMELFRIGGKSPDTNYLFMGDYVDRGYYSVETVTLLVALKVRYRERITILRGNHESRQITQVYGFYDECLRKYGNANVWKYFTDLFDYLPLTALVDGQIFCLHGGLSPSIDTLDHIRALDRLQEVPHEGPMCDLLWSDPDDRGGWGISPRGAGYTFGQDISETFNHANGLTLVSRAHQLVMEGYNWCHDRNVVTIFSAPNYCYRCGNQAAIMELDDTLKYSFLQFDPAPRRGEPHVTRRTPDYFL
# T1 sequence (P67775 whole entry H59Q): as the sequence (P67775 whole entry) above, with H59Q counted along it
# T1 sequence (Q76MZ3 whole entry partner): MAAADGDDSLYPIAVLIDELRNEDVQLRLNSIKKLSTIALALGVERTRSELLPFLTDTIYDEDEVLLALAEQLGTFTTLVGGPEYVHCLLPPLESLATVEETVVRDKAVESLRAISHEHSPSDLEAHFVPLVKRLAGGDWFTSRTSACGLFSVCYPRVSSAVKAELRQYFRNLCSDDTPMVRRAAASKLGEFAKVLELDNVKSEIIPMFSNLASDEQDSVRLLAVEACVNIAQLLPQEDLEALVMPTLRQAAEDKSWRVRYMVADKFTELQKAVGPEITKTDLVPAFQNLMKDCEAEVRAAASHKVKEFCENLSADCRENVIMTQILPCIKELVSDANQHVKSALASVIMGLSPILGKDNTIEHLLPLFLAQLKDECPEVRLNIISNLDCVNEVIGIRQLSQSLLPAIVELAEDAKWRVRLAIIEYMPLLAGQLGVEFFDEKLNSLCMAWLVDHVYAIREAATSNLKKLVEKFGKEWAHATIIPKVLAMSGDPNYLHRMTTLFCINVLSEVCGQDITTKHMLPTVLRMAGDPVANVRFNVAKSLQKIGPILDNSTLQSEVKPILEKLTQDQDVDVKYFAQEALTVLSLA
# human PME-1 (Homo sapiens, UniProt Q9Y570), sequence (Q9Y570 2-386): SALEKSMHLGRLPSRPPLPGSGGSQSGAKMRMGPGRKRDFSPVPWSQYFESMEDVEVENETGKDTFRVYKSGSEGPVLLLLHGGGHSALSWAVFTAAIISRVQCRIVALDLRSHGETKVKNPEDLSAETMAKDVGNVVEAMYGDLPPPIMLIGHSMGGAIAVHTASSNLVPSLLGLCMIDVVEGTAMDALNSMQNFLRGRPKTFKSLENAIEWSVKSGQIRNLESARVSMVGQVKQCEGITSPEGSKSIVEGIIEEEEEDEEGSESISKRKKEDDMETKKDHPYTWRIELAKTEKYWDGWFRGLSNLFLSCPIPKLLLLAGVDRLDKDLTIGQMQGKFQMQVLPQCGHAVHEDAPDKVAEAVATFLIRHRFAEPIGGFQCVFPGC
molecule,measurement,setting,value
C=C1C(=O)N[C@H](C)C(=O)N[C@@H](CC(C)C)C(=O)N[C@@H](C(=O)O)[C@H](C)C(=O)N[C@@H](CCCNC(=N)N)C(=O)N[C@@H](/C=C/C(C)=C/[C@H](C)[C@H](Cc2ccccc2)OC)[C@H](C)C(=O)N[C@@H](C(=O)O)CCC(=O)N1C [microcystin-LR] (R[Adda][d(γGlu)][NMeDha][dA]L[dAsp(3S-Me)]-OH; lactam N-7),inhibition of the PP2A methyltransferase,PP2A methyltransferase,inhibited
sodium vanadate,inhibition of PP2A,PP2A,25±18%
same,amount of PME-1 bound to (complexed with) H59Q C subunit,H59Q/PME-1 complex,not
"O=S(=O)(F)Cc1ccccc1 [PMSF, phenylmethylsulfonyl fluoride]",methylesterase activity of bacterially expressed PME-1,human PME-1 [1],not
wt: HA-tagged wild-type PP2A C subunit,"C subunit-associated phosphatase activity, cdc2-phosphorylated Histone H1 (Mean ± s.d.)",[2]; substrate cdc2-phosphorylated histone H1,100 % wt
same,"C subunit-associated phosphatase activity, phosphorylase a (Means ± s.d.)",[2]; substrate phosphorylase a,100 % wt
H59Q/301Stop: double mutant combining H59Q with deletion of the nine C subunit carboxy-terminal amino acids 301-309,overall mean reduction of PME-1 bound relative to H59Q,PME-1,28%
[F-].[Na+] [sodium fluoride],inhibition of PP2A,PP2A,91±10%
same,amount of PME-1 bound to (complexed with) H59Q C subunit,H59Q/PME-1 complex,reduce; also recorded: decreased
C=C1[C@@H](O)[C@@H]2O[C@]3(CC[C@H](/C=C/[C@@H](C)[C@@H]4CC(C)=C[C@@]5(O[C@H](C[C@@](C)(O)C(=O)O)CC[C@H]5O)O4)O3)CC[C@H]2O[C@@H]1[C@@H](O)C[C@H](C)[C@H]1O[C@@]2(CCCCO2)CC[C@H]1C [okadaic acid],inhibition of the PP2A methyltransferase,PP2A methyltransferase,inhibited
same,inhibition of PP2A,PP2A,97±4%
same,amount of PME-1 bound to (complexed with) H59Q C subunit,H59Q/PME-1 complex,reduce; also recorded: decreased
same,inhibition of the 46 kDa PP2A methylesterase,[3],inhibited
same,methylesterase activity of bacterially expressed PME-1,human PME-1 [4],inhibited
